One assay concerns the target human TRPC6 (Homo sapiens (Human), UniProt Q9Y210). The assay is described as follows: Inhibitory activity on human TRPC6 by conventional patch clamp assay. It counts as cell-based. The conditions noted are these: HEK293 human TRPC6, read-out: TRPC6 Inhibition rate (5 μM). How it is done: 3. Inhibitory Activity on Human TRPC6 by Conventional Patch Clamp Assay
In order to test the selectivity of the compounds in TRPA1 inhibition, a conventional patch clamp method was used to further measure the inhibitory activity of compounds on TRPC6. The principle and procedures of the conventional patch clamp assay could be found in the literature report of Ambrus et al [Ambrus et al. J Cell and Mol Med 2015, 19 (12):2771-9].
Evaluation of TRPC6 inhibitory activity of compounds was conducted using the HEK293 recombinant cell strain (Creative Biogene, NY) stably expressing human TRPC6. Cells were cultured in a DMEM/F12 (3:1, Thermo Fisher Scientific) medium (containing 5% calf serum, 2 mM glutamine and 20 mM HEPES) in an incubator at 37° C. and air humidity containing 5% CO2.
During the experiment, the adherent cells were placed in a recording room under the inverted microscope. All experiments were performed at room temperature. Each cell itself was used as a control thereof.
Test compounds at a final concentration were all prepared on the testing day and then dissolved in the extracellular fluid. The extracellular fluid was (mM): NaCl, 137; KCl, 4; CaCl2, 1.8; MgCl2, 1; HEPES, 10; glucose 10; pH 7.4 (NaOH titration). Low-Ca extracellular fluid was (mM): NaCl, 138.3; KCl, 4; CaCl2, 0.5; MgCl2, 1; HEPES, 10; glucose 10; pH 7.4 (NaOH titration). […]
Background: In patch-clamp work, channel activity is measured electrically.

The subject of a further assay is asthmatic rats. The assay is described as follows: Ovalbumin-induced asthma rat model (HE staining, lung tissue inflammation area, airway inflammation score). It counts as in vivo, SD rats. An excerpt:
4. Effects of Compounds on Ovalbumin-Induced Asthma in Mouse and Rat Models
SPF-grade SD male rats (purchased from Zhejiang Academy of Medical Sciences, license number SCXK (Zhejiang) 2019-0002) with a body weight of 160-180 g; and SPF-grade female BABL/c mice (purchased from Zhejiang Weitong Lihua Experimental Animals Technology Co., Ltd., license number SCXK (Zhejiang) 2019-0001) with a body weight of 16-18 g were used. The above animals were raised by the Experimental Animal Center of Zhejiang Academy of Traditional Chinese Medicine.
Formulation of compound solution: compound was vortexed in a solvent system, dissolved by ultrasound, and prepared into a solution at a corresponding concentration, which was prepared just before use (the solvent system was composed of 5% Solutol HS 15, 5% DMSO and 90% physiological saline).
BABL/c mice or SD rats were randomly divided into: normal control group, model control group, dexamethasone group (0.72 mg/kg), and the respective test compound groups (one group for each dose), 10 mice in each group; 6 rats in each group.
Sensitization of rats: On Day 1 and Day 8, the model control group and the respective drug administration groups were intraperitoneally injected with 1 ml of 10% OVA sensitizing solution, and the normal group was intraperitoneally injected with an equal volume of normal saline.
Rat: from Day 15, the dexamethasone group and the respective test compound groups were intraperitoneally injected, 20 minutes before challenge, with the corresponding drugs with an injection volume of 0.3 ml/100 g; the model control group was intraperitoneally injected, 20 minutes before challenge, with an equal volume of solvent system; and the normal control group was not treated. Administration was conducted for 7 consecutive days. […]
The rat was anesthetized with 10% urethane at 1.3 ml/100 g volume, and the left lung tissue was taken and fixed in 4% neutral formaldehyde, paraffin-embedded according to routine operation, sectioned for HE staining. […] NIS-Elements D 3.2 software was used to manually integrate and measure the total area of lung tissue sections and the inflammation area under all fields of view, the total areas under each field of view were accumulated, and the percentage of the cumulative area of inflammation in the total area was calculated, wherein the percentage of inflammation area=cumulative area of inflammation/total area×100%.
All data were expressed as mean±standard deviation (x±s), and the data were processed by SPSS 20.0 statistical software. […]

The mark [1] stands for this setting: intraperitoneal injection, vs model group, P<0.05, 0.01.

Data on two compounds can be found in patent publication US12391660B2, “Heteroaromatic acetamide derivative, and preparation and use thereof” (Hangzhou Westan Pharmaceutical Technology Co., Ltd, priority 2019, dated 2025).

human TRPC6, sequence (Q9Y210 whole entry): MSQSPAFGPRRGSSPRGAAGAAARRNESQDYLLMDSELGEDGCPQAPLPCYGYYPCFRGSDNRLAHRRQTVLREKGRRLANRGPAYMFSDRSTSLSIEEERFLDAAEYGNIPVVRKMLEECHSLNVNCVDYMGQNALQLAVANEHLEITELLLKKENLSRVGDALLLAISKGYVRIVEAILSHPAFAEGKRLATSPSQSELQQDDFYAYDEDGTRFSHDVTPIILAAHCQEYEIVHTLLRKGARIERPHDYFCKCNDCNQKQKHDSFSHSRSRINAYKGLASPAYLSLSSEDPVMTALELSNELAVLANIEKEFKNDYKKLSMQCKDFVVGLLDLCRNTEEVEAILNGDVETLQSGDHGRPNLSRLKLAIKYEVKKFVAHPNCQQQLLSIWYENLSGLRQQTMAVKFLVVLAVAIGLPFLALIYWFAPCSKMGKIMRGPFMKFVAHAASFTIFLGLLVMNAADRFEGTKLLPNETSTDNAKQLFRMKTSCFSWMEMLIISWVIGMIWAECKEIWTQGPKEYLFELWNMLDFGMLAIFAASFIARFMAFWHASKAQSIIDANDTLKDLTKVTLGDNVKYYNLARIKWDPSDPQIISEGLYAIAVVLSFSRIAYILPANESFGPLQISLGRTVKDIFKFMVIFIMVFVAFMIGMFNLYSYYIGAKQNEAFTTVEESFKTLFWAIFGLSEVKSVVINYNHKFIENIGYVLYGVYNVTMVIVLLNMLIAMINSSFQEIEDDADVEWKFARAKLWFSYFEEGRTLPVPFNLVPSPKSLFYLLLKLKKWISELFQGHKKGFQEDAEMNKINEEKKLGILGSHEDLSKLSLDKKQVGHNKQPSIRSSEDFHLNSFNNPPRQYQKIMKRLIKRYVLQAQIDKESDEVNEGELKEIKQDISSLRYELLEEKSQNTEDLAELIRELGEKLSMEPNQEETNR

A word on the inhibition: it is the change of the read-out against control, counted positive when it falls. For the compound `N#Cc1ccc(NC2(C(=O)N3CCN(c4ccc(C(F)(F)F)cc4)CC3)CCCC2)cc1` [Compound 1, 4-((1-(4-(4-(trifluoromethyl)phenyl)piperazine-1-carbonyl)cyclopentyl)amino)benzonitrile], the inhibition at 5 µM at human TRPC6 was -60%. Also, the “lung tissue inflammation and inflammatory cell infiltration around the airway (HE x40)” value in the assay on asthmatic rats (compared with the model group) is given as “significant improvement”. Also, in the assay with asthmatic rats (setting [1]), the airway inflammation score entry is given as “significantly decreased” and the “lung tissue inflammation area” value is recorded as “significantly decreased”.

As for `CC(C)(C)C1CCN(C(=O)C2(Nc3ccc(C#N)cc3)CCCC2)CC1` [Compound 31, 4-((1-(4-(tert-butyl)piperidine-1-carbonyl)cyclopentyl)amino)benzonitrile], the inhibition at 5 µM at human TRPC6 was 26%.
